In ChEMBL document CHEMBL1909046, “DrugMatrix in vitro pharmacology data”:

Tests used:
[1] = DRUGMATRIX: Glutamate, NMDA, Agonism radioligand binding (ligand: [3H] CGP-39653); assay type: cell membranes, Rattus norvegicus, Wistar, Cerebral cortex, Membrane; conditions: Not Active = under 50% inhibition at 10 µM
[2] = molecular target: Platelet-activating factor receptor (Homo sapiens, UniProt P25105); assay type: tissue-based; note: in other assays of this panel Not Active means under 50% inhibition at 10 µM
[3] = molecular target: T1, Glucocorticoid receptor (Homo sapiens, UniProt P04150); conditions: hela s3; note: in other assays of this panel Not Active means under 50% inhibition at 10 µM
T1 sequence (P04150 whole entry): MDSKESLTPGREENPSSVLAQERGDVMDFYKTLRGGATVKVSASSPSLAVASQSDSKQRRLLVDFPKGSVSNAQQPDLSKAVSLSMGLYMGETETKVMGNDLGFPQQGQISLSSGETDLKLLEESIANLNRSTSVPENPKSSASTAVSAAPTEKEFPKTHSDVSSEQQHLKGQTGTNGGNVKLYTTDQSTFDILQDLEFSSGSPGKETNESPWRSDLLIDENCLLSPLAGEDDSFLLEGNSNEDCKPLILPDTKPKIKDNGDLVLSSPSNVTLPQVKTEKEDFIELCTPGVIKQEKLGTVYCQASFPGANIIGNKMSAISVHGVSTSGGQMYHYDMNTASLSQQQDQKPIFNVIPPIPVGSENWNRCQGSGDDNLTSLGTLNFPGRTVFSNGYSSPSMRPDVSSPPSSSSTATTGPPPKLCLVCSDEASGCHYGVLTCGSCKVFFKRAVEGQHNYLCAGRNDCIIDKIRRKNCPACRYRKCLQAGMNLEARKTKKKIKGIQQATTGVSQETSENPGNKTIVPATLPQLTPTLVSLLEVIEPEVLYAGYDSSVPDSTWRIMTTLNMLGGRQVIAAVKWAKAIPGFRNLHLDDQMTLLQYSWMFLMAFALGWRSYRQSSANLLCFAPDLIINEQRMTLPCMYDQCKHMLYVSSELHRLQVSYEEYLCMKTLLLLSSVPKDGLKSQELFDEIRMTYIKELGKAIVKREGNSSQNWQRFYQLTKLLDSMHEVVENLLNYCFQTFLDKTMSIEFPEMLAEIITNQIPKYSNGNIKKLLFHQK

Chain of Platelet-activating factor receptor (P25105 whole entry): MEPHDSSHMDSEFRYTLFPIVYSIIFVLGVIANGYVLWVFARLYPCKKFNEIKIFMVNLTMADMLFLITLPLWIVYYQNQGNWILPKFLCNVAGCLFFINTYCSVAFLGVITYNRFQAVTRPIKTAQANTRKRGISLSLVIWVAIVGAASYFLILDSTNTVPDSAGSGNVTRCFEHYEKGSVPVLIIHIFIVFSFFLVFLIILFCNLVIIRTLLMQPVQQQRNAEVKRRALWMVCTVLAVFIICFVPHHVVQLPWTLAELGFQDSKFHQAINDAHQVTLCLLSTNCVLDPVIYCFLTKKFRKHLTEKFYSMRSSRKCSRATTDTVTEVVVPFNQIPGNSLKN

O=C(N[C@H](CO)[C@H](O)c1ccc([N+](=O)[O-])cc1)C(Cl)Cl [CHLORAMPHENICOL]
Not Active: IC50 [1] | Ki [1] | IC50 [2]

CCC1=C[C@@H]2CN(C1)Cc1c([nH]c3ccccc13)[C@@](C(=O)OC)(c1cc3c(cc1OC)N(C)[C@H]1[C@@](O)(C(=O)OC)[C@H](OC(C)=O)[C@]4(CC)C=CCN5CC[C@]31[C@@H]54)C2 [VINORELBINE]
Not Active: IC50 [1] | Ki [1] | IC50 [2] | IC50 [3]

CC(C(=O)O)c1cccc(C(=O)c2ccccc2)c1 (centres undefined) [KETOPROFEN]
Not Active: IC50 [1] | Ki [1] | IC50 [2]

O=c1ccc2ccccc2o1 [COUMARIN]
Not Active: IC50 [1] | Ki [1] | IC50 [2]

CC[C@@H](CO)NCCN[C@@H](CC)CO [ETHAMBUTOL]
Not Active: IC50 [1] | Ki [1] | IC50 [2]

CN1C(=O)COc2c(C(=O)NC3CN4CCC3CC4)cc(Cl)cc21 (centres undefined) [AZASETRON]
Not Active: IC50 [1] | Ki [1] | IC50 [2]

O=C(C1CCCCC1)N1CC(=O)N2CCc3ccccc3C2C1 (centres undefined) [PRAZIQUANTEL]
Not Active: IC50 [1] | Ki [1] | IC50 [2] | IC50 [3]

C[N+](C)(C)CCO.[Cl-] [CHOLINE CHLORIDE]
Not Active: IC50 [1] | Ki [1] | IC50 [2]

NC(=O)NO [HYDROXYUREA]
Not Active: IC50 [1] | Ki [1] | IC50 [2] | IC50 [3]

C[C@@]12C(=O)OC(=O)[C@]1(C)[C@H]1CC[C@@H]2O1 [CANTHARIDIN]
Not Active: IC50 [1] | Ki [1] | IC50 [2] | IC50 [3]

O=S(=O)([O-])CCS.[Na+] [MESNA]
Not Active: IC50 [1] | Ki [1] | IC50 [2] | IC50 [3]

CCN[C@@H]1C[C@H](N)[C@@H](O[C@H]2OC(CN)=CC[C@H]2N)[C@H](O)[C@H]1O[C@H]1OC[C@](C)(O)[C@H](NC)[C@H]1O [NETILMICIN]
Not Active: IC50 [1] | Ki [1] | IC50 [2]

C/C=C/C[C@@H](C)[C@@H](O)[C@H]1C(=O)N[C@@H](CC)C(=O)N(C)CC(=O)N(C)[C@@H](CC(C)C)C(=O)N[C@@H](C(C)C)C(=O)N(C)[C@@H](CC(C)C)C(=O)N[C@@H](C)C(=O)N[C@H](C)C(=O)N(C)[C@@H](CC(C)C)C(=O)N(C)[C@@H](CC(C)C)C(=O)N(C)[C@@H](C(C)C)C(=O)N1C [CYCLOSPORINE]
Not Active: IC50 [1] | Ki [1] | IC50 [2]

CCOC(=O)C(C)(C)Oc1ccc(Cl)cc1 [CLOFIBRATE]
Not Active: IC50 [1] | Ki [1] | IC50 [2] | IC50 [3]

COC(=O)C1=C(C)NC(C)=C(C(=O)OCC(C)C)C1c1ccccc1[N+](=O)[O-] (centres undefined) [NISOLDIPINE]
Not Active: IC50 [1] | Ki [1] | IC50 [2] | IC50 [3]

CC(=O)Nc1c(I)c(NC(C)=O)c(I)c(C(=O)O)c1I [DIATRIZOIC ACID]
Not Active: IC50 [1] | Ki [1] | IC50 [2] | IC50 [3]

C[C@@H]1C[C@@H]([C@H](O)CC2CC(=O)NC(=O)C2)C(=O)[C@@H](C)C1 [CYCLOHEXIMIDE]
Not Active: IC50 [1] | Ki [1] | IC50 [2]

NC(=O)c1cnccn1 [PYRAZINAMIDE]
Not Active: IC50 [1] | Ki [1] | IC50 [2] | IC50 [3]

O=C1CC[C@H](N2C(=O)c3ccccc3C2=O)C(=O)N1
Not Active: IC50 [1] | Ki [1] | IC50 [2] | IC50 [3]

ClC(Cl)Cl [CHLOROFORM]
Not Active: IC50 [1] | Ki [1] | IC50 [2] | IC50 [3]

CCc1c2c(nc3ccc(OC(=O)N4CCC(N5CCCCC5)CC4)cc13)-c1cc3c(c(=O)n1C2)COC(=O)[C@]3(O)CC [IRINOTECAN]
Not Active: IC50 [1] | Ki [1] | IC50 [2] | IC50 [3]

CCCN(CCC)C(=O)C(CCC(=O)O)NC(=O)c1ccccc1 (centres undefined) [PROGLUMIDE]
Not Active: IC50 [1] | Ki [1] | IC50 [2] | IC50 [3]

CCCC(CCC)C(=O)O [VALPROIC ACID]
Not Active: IC50 [1] | Ki [1] | IC50 [2] | IC50 [3]

CCCC(=O)Nc1ccc(OCC(O)CNC(C)C)c(C(C)=O)c1 (centres undefined) [ACEBUTOLOL]
Not Active: IC50 [1] | Ki [1] | IC50 [2] | IC50 [3]

Cc1ccc(S(=O)(=O)NC(=O)NN2CC3CCCC3C2)cc1 (centres undefined) [GLICLAZIDE]
Not Active: IC50 [1] | Ki [1] | IC50 [2]

N=C(N)NC(=O)c1nc(Cl)c(N)nc1N [AMILORIDE]
Not Active: IC50 [1] | Ki [1] | IC50 [2] | IC50 [3]

Cc1cc2cc3c(C)cc(=O)oc3c(C)c2o1 [TRIOXSALEN]
Not Active: IC50 [1] | Ki [1] | IC50 [2]

COc1cccc2c1C(=O)c1c(O)c3c(c(O)c1C2=O)C[C@@](O)(C(=O)CO)C[C@@H]3O[C@H]1C[C@H](N)[C@@H](O)[C@H](C)O1 [EPIRUBICIN]
Not Active: IC50 [1] | Ki [1] | IC50 [2] | IC50 [3]

C#C[C@]1(O)CC[C@H]2[C@@H]3CCc4cc(OC)ccc4[C@H]3CC[C@@]21C [MESTRANOL]
Not Active: IC50 [1] | Ki [1] | IC50 [2] | IC50 [3]

Nc1ccn([C@@H]2CS[C@H](CO)O2)c(=O)n1 [LAMIVUDINE]
Not Active: IC50 [1] | Ki [1] | IC50 [2] | IC50 [3]

COP(=O)(OC)OC=C(Cl)Cl [DICHLORVOS]
Not Active: IC50 [1] | Ki [1] | IC50 [2]

Cc1nccn1CC1CCc2c(c3ccccc3n2C)C1=O (centres undefined) [ONDANSETRON]
Not Active: IC50 [1] | Ki [1] | IC50 [2] | IC50 [3]

CCOC(=O)[C@H](CCc1ccccc1)N[C@H]1CCc2ccccc2N(CC(=O)O)C1=O [BENAZEPRIL]
Not Active: IC50 [1] | Ki [1] | IC50 [2] | IC50 [3]

CCCCOc1ccc(OCCCN2CCOCC2)cc1 [PRAMOXINE]
Not Active: IC50 [1] | Ki [1] | IC50 [2]

C[C@H]1C[C@H]2[C@@H]3CCC4=CC(=O)C=C[C@]4(C)[C@@]3(Cl)[C@@H](O)C[C@]2(C)[C@@]1(O)C(=O)CO [BECLOMETHASONE]
Not Active: IC50 [1] | Ki [1] | IC50 [2]

CCN(CC)CCOC(=O)c1ccc(N)cc1 [PROCAINE]
Not Active: IC50 [1] | Ki [1] | IC50 [2]

Nc1c(CC(=O)O)cccc1C(=O)c1ccc(Br)cc1 [BROMFENAC]
Not Active: IC50 [1] | Ki [1] | IC50 [2]

C[C@]12CC[C@@H]3c4ccc(O)cc4CC[C@H]3[C@@H]1CC[C@@H]2O [ESTRADIOL]
Not Active: IC50 [1] | Ki [1] | IC50 [2]

COc1ccc2cc([C@H](C)C(=O)O)ccc2c1 [NAPROXEN]
Not Active: IC50 [1] | Ki [1] | IC50 [2]

Cc1ncc([N+](=O)[O-])n1CCO [METRONIDAZOLE]
Not Active: IC50 [1] | Ki [1] | IC50 [2]

COc1ccc2[nH]c([S+]([O-])Cc3ncc(C)c(OC)c3C)nc2c1 (centres undefined) [OMEPRAZOLE]
Not Active: IC50 [1] | Ki [1] | IC50 [2]
